Our source for the IC50 values is US6051718A, “PDE IV inhibiting 2-cyanoiminoimidazole derivatives” (Janssen Pharmaceutica, N.V., priority 1996, dated 2000).

T1 sequence (Q07343 whole entry): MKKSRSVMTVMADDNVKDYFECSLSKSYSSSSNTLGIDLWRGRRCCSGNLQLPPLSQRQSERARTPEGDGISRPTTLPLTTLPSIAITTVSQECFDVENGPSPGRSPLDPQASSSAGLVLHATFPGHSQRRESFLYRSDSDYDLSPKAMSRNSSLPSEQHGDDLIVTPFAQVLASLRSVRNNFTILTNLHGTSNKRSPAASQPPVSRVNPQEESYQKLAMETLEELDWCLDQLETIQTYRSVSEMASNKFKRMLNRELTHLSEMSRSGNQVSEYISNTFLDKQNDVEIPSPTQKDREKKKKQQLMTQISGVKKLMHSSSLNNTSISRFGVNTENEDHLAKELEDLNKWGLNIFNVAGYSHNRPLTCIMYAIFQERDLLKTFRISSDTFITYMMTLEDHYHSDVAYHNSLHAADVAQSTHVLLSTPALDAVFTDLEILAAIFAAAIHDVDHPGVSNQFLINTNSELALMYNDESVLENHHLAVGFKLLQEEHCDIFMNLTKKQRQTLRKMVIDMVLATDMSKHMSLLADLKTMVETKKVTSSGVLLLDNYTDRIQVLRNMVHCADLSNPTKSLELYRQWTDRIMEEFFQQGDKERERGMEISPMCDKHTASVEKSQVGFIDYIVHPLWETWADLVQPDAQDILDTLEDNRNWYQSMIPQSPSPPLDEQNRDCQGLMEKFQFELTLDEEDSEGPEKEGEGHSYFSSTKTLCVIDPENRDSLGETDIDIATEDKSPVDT

The experiment has as its target T1, recombinant human MNL phosphodiesterase PDE IV B (Homo sapiens, UniProt Q07343).
T1 construct: made in house
Put plainly: Inhibition of recombinant human mononuclear lymphocyte (MNL) phosphodiesterase type IV B produced in insect cells with a baculovirus vector. The class given is biochemical. The note with it: 3H-cAMP 0.8 μM, 10 minutes, 37° C., pH 8, DMSO 1%. Here is the method: Example C.1: Inhibition of Recombinant Human Mononuclear Lymphocyte (MNL) Phosphodiesterase Type IV B Produced in Insect Cells with a Baculovirus Vector
The alleviating and/or curing effect of the instant compounds on allergic and atopic diseases was assessed by an in vitro assay system to detect an inhibiting effect on the recombinant human MNL phosphodiesterase type IV B.
Seventy-two hours after infection with recombinant baculovirus, the insect cells were harvested and pelleted at 500 g for 5 minutes. The cells were lysed in 10 ml lysis-buffer consisting of 20 mM Tris, 10 mM EGTA, 2 mM Na2 EDTA, 1% Triton-X-100, 1 mM Na3 VO4, 10 mM NaF, 2 μg/ml of leupeptine, pepstatine and aprotinine, 0.3 μg/ml benzamidine and 100 μg/ml TPCK pH 7.5. After 5 minutes on ice, solubilized cells were centrifuged at 4000 rpm for 15 minutes at 4° C. The resulting supernatant was filtered through a 0.45 μm filter (Millipore) and brought to TBS buffer (50 mM Tris, 150 mM NaCl pH 7.4).
After washing the column with equilibration buffer, PDE IV was eluted in 1.5 ml fractions containing 37.5 μl 1M Tris pH 8. The fractions were dialyzed overnight against 20 mM Tris, 2 mM Na2 EDTA and 400 mM NaCl pH 7.5 and tested for PDE IV activity. Indentification was done on SDS PAGE and Western Blot (anti-FLAG-M2). Active fractions were pooled, brought to 10% glycerol and stored at -70° C.
The incubation mixture (pH 8) (200 μl) contained 20 mM Tris, 10 mM magnesium sulphate, 0.8 μM ^3 H-cAMP (310 mCi/mmole) and the phosphodiesterase type IV, the amount depending on the enzymatic activity. […] When the effect of different compounds on phosphodiesterase activity was tested, the medium without cAMP was incubated with the compound(s) or its carrier (DMSO-1% final concentration) for 5 minutes. […] After cooling to room temperature, alkaline phosphatase (0.25 μg/ml) was added and the mixture was incubated at 37° C. for 20 min. 100 μl of the mixture was subsequently applied to a GF-B filter-microtiter-plate (Millipore) filled with 300 μl DEAE-Sephadex-A25 suspension. The plate was washed 3 times with 75 μl 20 mM Tris pH 7.5 and the filtrates were collected for counting in the Packard Top Count scintillation counter.
The inhibiting effect of the present compounds on recombinant human MNL phosphodiesterase PDE IV B was measured at different concentrations of the instant compounds.
Regarding `COc1ccc(C(C)CN2CCNC2=NC#N)cc1OC1CCCC1` (racemic) [Compound 1, (±)-[1-[2-[3-(cyclopentyloxy)-4-methoxyphenyl]propyl]-2-imidazolidinylidene] cyanamide], the IC50 stood at 330 nM.
For `CC(Cn1cc[nH]c1=NC#N)c1ccc(OC(F)F)c(OC2CCOC2)c1` (racemic) [Compound 2, (±)-[1-[2-[4-(difluoromethoxy)-3-[(tetrahydro-3-furanyl)oxy]phenyl]-propyl]-1,3-dihydro-2H-imidazol-2-ylidene]cyanamide] the value was 100 nM; for `COc1ccc(C(C)Cn2ccnc2NC#N)cc1OC1CCCC1` (single isomer, unassigned) [Compound 12], 21.9 nM; for `COc1ccc(C(C)Cn2ccnc2NC#N)cc1OC1CCCC1` (single isomer, unassigned) [Compound 13], 22.2 nM.
Turning to `COc1ccc(C(C)Cn2ccnc2NC#N)cc1OCC1CC1` (single isomer, unassigned) [Compound 14], the IC50 came to 27.2 nM.
As to `COc1ccc(C(C)Cn2ccnc2NC#N)cc1OCC1CC1` (single isomer, unassigned) [Compound 15], the IC50 was 33.5 nM.
With `COc1ccc(C(C)Cn2ccnc2NC#N)cc1OCCCCCc1ccccc1` (single isomer, unassigned) [Compound 18], the IC50 amounted to 40.9 nM.
For `COc1ccc(C(C)Cn2ccnc2NC#N)cc1OCCCCCc1ccccc1` (single isomer, unassigned) [Compound 19], the IC50 is 37.5 nM.
`COc1ccc(C(C)Cn2cc[nH]c2=NC#N)cc1OC1CCCC1` (centres unmarked) [Compound 3]: the IC50 is 30 nM.
For `CC(Cn1cc[nH]c1=NC#N)c1ccc(OC(F)F)c(OC2CCCC2)c1` (centres unmarked) [Compound 4] the value was 15.3 nM; for `N#CN=c1[nH]ccn1CCc1ccc(OC(F)F)c(OC2CCCC2)c1` [Compound 5], 26.6 nM; for `CC(Cn1cc[nH]c1=NC#N)c1ccc(OC(F)F)c(OCC2CC2)c1` (centres unmarked) [Compound 6], 22.4 nM.
In the case of `COc1ccc(C(C)Cn2cc[nH]c2=NC#N)cc1OCC1CC1` (centres unmarked) [Compound 8] it was 56.5 nM; in that of `COc1ccc(C(C)Cn2cc[nH]c2=NC#N)cc1OCCCCCc1ccccc1` (centres unmarked) [Compound 9], 36.1 nM; in that of `COc1ccc(C(C)Cn2cc[nH]c2=NC#N)cc1OC1CCOC1` (centres unmarked) [Compound 10], 196 nM.
For the compound `CC(Cn1ccnc1NC#N)c1ccc(OC(F)F)c(OCCCCCc2ccccc2)c1` (centres unmarked) [Compound 11], the IC50 came out at 32.7 nM.
For `COc1ccc(CCn2cc[nH]c2=NC#N)cc1OC1Cc2ccccc2C1` [Compound 20] the value was 76.5 nM.
